The source of these data is US10111874B2, “Combination therapies for treatment of cancer” (Araxes Pharma LLC, priority 2014, dated 2018).

Molecules are shown by their SMILES.

T1 sequence (P01116 1-169 isoform P01116-2 G12C): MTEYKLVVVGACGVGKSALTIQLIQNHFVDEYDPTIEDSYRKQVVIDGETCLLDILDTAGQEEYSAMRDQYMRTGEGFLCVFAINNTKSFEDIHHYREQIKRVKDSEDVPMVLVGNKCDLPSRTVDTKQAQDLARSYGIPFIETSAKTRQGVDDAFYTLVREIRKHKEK

This experiment concerns the target T1, KRAS G12C 1-169, his-tagged protein, GDP-loaded (Homo sapiens, UniProt P01116, G12C).
T1 construct: KRAS G12C 1-169, his-tagged protein, GDP-loaded
In words: Biochemical assay: covalent binding to KRAS G12C analyzed by mass spectrometry. Note: test concentration or dose not given here. The note with it: compounds 48-246, measured at 2 h.
In the case of `C=CC(=O)N1CCN(c2ncnc3cc(-c4ccccc4)c(Cl)cc23)CC1CO` (stereo not shown) [Compound I-116, 1-(4-(6-chloro-7-phenylquinazolin-4-yl)-2-(hydroxymethyl)piperazin-1-yl)prop-2-en-1-one], the Binding % entry is “++ (++indicates binding activity greater than 25% and up to 50%)”.
The value for `C=CC(=O)N1CCN(c2ncnc3cc(-c4ccc(Cl)cc4O)c(Cl)cc23)CC1` [Compound I-117, 1-(4-(6-chloro-7-(4-chloro-2-hydroxyphenyl)quinazolin-4-yl)piperazin-1-yl)prop-2-en-1-one] was “+++ (+++indicates binding activity greater than 50% and up to 75%)”; that for `C=CC(=O)N1CCN(c2ncnc3cc(-c4cc(Cl)ccc4O)c(Cl)cc23)CC1` [Compound I-118, 1-(4-(6-chloro-7-(5-chloro-2-hydroxyphenyl)quinazolin-4-yl)piperazin-1-yl)prop-2-en-1-one] was “+++ (+++indicates binding activity greater than 50% and up to 75%)”; that for `C=CC(=O)N1CCN(c2ncnc3cc(-c4ccc(F)cc4C(F)(F)F)c(Cl)cc23)CC1` [Compound I-119, 1-(4-(6-chloro-7-(4-fluoro-2-(trifluoromethyl)phenyl)quinazolin-4-yl)piperazin-1-yl)prop-2-en-1-one] was “+++ (+++indicates binding activity greater than 50% and up to 75%)”.
As for `C=CC(=O)N1CCN(c2ncnc3cc(-c4ccccc4F)c(Cl)cc23)CC1C(N)=O` (stereo not shown) [Compound I-120, 1-acryloyl-4-(6-chloro-7-(2-fluorophenyl)quinazolin-4-yl)piperazine-2-carboxamide], the Binding % result was “+++ (+++indicates binding activity greater than 50% and up to 75%)”.
Consider `C=CC(=O)N1CCN(c2ncnc3cc(-c4ccccc4C(F)(F)F)c(Cl)cc23)CC1C(N)=O` (stereo not shown) [Compound I-121, 1-acryloyl-4-(6-chloro-7-(2-(trifluoromethyl)phenyl)quinazolin-4-yl)piperazine-2-carboxamide], for which the Binding % result is “++++ (++++indicates binding activity greater than 75%)”.
For the compound `C=CC(=O)N1CCN(c2ncnc3cc(-c4cc(F)ccc4O)c(Cl)cc23)CC1` [Compound I-122, 1-(4-(6-chloro-7-(5-fluoro-2-hydroxyphenyl)quinazolin-4-yl)piperazin-1-yl)prop-2-en-1-one], the Binding % entry is “++ (++indicates binding activity greater than 25% and up to 50%)”.
The value for `C=CC(=O)N1CCN(c2ncnc3cc(-c4cccc5ccccc45)c(Cl)cc23)CC1` [Compound I-123, 1-(4-(6-chloro-7-(naphthalen-1-yl)quinazolin-4-yl)piperazin-1-yl)prop-2-en-1-one] was “++++ (++++indicates binding activity greater than 75%)”; that for `C=CC(=O)N1CCN(c2ncnc3cc(-c4ccccc4C(F)(F)F)c(Cl)cc23)CC1C` (stereo not shown) [Compound I-124, 1-(4-(6-chloro-7-(2-(trifluoromethyl)phenyl)quinazolin-4-yl)-2-methylpiperazin-1-yl)prop-2-en-1-one] was “+++ (+++indicates binding activity greater than 50% and up to 75%)”.
Take `C=CC(=O)N1CCN(c2ncnc3cc(-c4ccccc4C(F)(F)F)c(Cl)cc23)CC1CC#N` (stereo not shown) [Compound I-125, 2-(1-acryloyl-4-(6-chloro-7-(2-(trifluoromethyl)phenyl)quinazolin-4-yl)piperazin-2-yl)acetonitrile]: the Binding % entry was “++++ (++++indicates binding activity greater than 75%)”.
The entry for `C=CC(=O)N1CCN(c2ncnc3cc(-c4ccccc4C4CC4)c(Cl)cc23)CC1` [Compound I-126, 1-(4-(6-chloro-7-(2-cyclopropylphenyl)quinazolin-4-yl)piperazin-1-yl)prop-2-en-1-one] is “++++ (++++indicates binding activity greater than 75%)”; for `C=CC(=O)N1CCN(c2c(C#N)cnc3cc(-c4ccccc4F)c(Cl)cc23)CC1` [Compound I-127] it is “++++ (++++indicates binding activity greater than 75%)”; for `C=CC(=O)N1CCN(c2ncnc3cc(-c4cc(O)ccc4Cl)c(Cl)cc23)CC1` [Compound I-128, 1-(4-(6-chloro-7-(2-chloro-5-hydroxyphenyl)quinazolin-4-yl)piperazin-1-yl)prop-2-en-1-one] it is “+++ (+++indicates binding activity greater than 50% and up to 75%)”.
The entry for `C=CC(=O)N1CCN(c2ncnc3cc(-c4cccc5ncoc45)c(Cl)cc23)CC1` [Compound I-129, 1-(4-(7-(benzo[d]oxazol-7-yl)-6-chloroquinazolin-4-yl)piperazin-1-yl)prop-2-en-1-one] is “+ (+indicates binding activity from 5% to 25%)”; for `C=CC(=O)N1CCN(c2ncnc3cc(-c4cccc(C#N)c4)c(Cl)cc23)CC1` [Compound I-130, 3-(4-(4-acryloylpiperazin-1-yl)-6-chloroquinazolin-7-yl)benzonitrile] it is “+ (+indicates binding activity from 5% to 25%)”.
With `C=CC(=O)N1CCN(c2ncnc3cc(-c4cccc(C(=O)N(C)C)c4F)c(Cl)cc23)CC1` [Compound I-131, 3-(4-(4-acryloylpiperazin-1-yl)-6-chloroquinazolin-7-yl)-2-fluoro-N,N-dimethylbenzamide], the Binding % entry is given as “+ (+indicates binding activity from 5% to 25%)”.
As for `C=CC(=O)N1CCN(c2ncnc3cc(-c4c(F)cccc4F)c(Cl)cc23)CC1` [Compound I-132, 1-(4-(6-chloro-7-(2,6-difluorophenyl)quinazolin-4-yl)piperazin-1-yl)prop-2-en-1-one], the Binding % result was “+++ (+++indicates binding activity greater than 50% and up to 75%)”.
The entry for `C=CC(=O)N1CCN(c2ncnc3cc(-c4ccc(F)cc4O)c(Cl)cc23)CC1` [Compound I-133, 1-0(4-(6-chloro-7-(4-fluoro-2-hydroxyphenyl)quinazolin-4-yl)piperazin-1-yl)prop-2-en-1-one] is “++ (++indicates binding activity greater than 25% and up to 50%)”.
The entry for `C=CC(=O)N1CCN(c2ncnc3cc(-c4ccccc4O)c(Cl)cc23)CC1C` (stereo not shown) [Compound I-134, 1-(4-(6-chloro-7-(2-hydroxyphenyl)quinazolin-4-yl)-2-methylpiperazin-1-yl)prop-2-en-1-one] is “++ (++indicates binding activity greater than 25% and up to 50%)”.
The entry for `C=CC(=O)N1CCN(c2ncnc3cc(-c4cccc5ncccc45)c(Cl)cc23)CC1` [Compound I-135, 1-(4-(6-chloro-7-(quinolin-5-yl)quinazolin-4-yl)piperazin-1-yl)prop-2-en-1-one] is “+ (+indicates binding activity from 5% to 25%)”; for `C=CC(=O)N1CCN(c2ncnc3cc(-c4cccc5cnccc45)c(Cl)cc23)CC1` [Compound I-136, 1-(4-(6-chloro-7-(isoquinolin-5-yl)quinazolin-4-yl)piperazin-1-yl)prop-2-en-1-one] it is “++ (++indicates binding activity greater than 25% and up to 50%)”.
With `C=CC(=O)N1CCN(c2ncnc3cc(-c4ccccc4F)c(C#N)cc23)CC1` [Compound I-137, 4-(4-acryloylpiperazin-1-yl)-7-(2-fluorophenyl)quinazoline-6-carbonitrile], the Binding % result is “+ (+indicates binding activity from 5% to 25%)”.
The value for `C=CC(=O)N1CCN(c2ncnc3cc(-c4c(O)cccc4F)c(Cl)cc23)CC1` [Compound I-138, 1-(4-(6-chloro-7-(2-fluoro-6-hydroxyphenyl)quinazolin-4-yl)piperazin-1-yl)prop-2-en-1-one] was “++++ (++++indicates binding activity greater than 75%)”.
Consider `C=CC(=O)N1CCN(c2ncnc3cc(-c4ccc(F)cc4F)c(Cl)cc23)CC1CC#N` (stereo not shown) [Compound I-139, 2-(1-acryloyl-4-(6-chloro-7-(2,4-difluorophenyl)quinazolin-4-yl)piperazin-2-yl)acetonitrile], for which the Binding % result is on record as “++++ (++++indicates binding activity greater than 75%)”.
In the case of `C=CC(=O)N1CCN(c2ncnc3cc(-c4c(C)ccc5[nH]ncc45)c(Cl)cc23)CC1` [Compound I-140, 1-(4-(6-chloro-7-(5-methyl-1H-indazol-4-yl)quinazolin-4-yl)piperazin-1-yl)prop-2-en-1-one], the Binding % entry was “+++ (+++indicates binding activity greater than 50% and up to 75%)”.
The entry for `C=CC(=O)N1CCN(c2ncnc3cc(-c4cc(OC(F)(F)F)ccc4F)c(Cl)cc23)CC1` [Compound I-141, 1-(4-(6-chloro-7-(2-fluoro-5-(trifluoromethoxy)phenyl)quinazolin-4-yl)piperazin-1-yl)prop-2-en-1-one] is “+ (+indicates binding activity from 5% to 25%)”; for `C=CC(=O)N1CCN(c2ncnc3cc(-c4cccc(C(=O)NC5CC5)c4)c(Cl)cc23)CC1` [Compound I-142, 3-(4-(4-acryloylpiperazin-1-yl)-6-chloroquinazolin-7-yl)-N-cyclopropylbenzamide] it is “+ (+indicates binding activity from 5% to 25%)”; for `C=CC(=O)N1CCN(c2ncnc3cc(-c4cc(C5(C#N)CC5)ccc4F)c(Cl)cc23)CC1` [Compound I-143, 1-(3-(4-(4-acryloylpiperazin-1-yl)-6-chloroquinazolin-7-yl)-4-fluorophenyl)cyclopropanecarbonitrile] it is “+++ (+++indicates binding activity greater than 50% and up to 75%)”.
The entry for `C=CC(=O)N1CCN(c2ncnc3cc(-c4ccc5[nH]ncc5c4)c(Cl)cc23)CC1` [Compound I-144, 1-(4-(6-chloro-7-(1H-indazol-5-yl)quinazolin-4-yl)piperazin-1-yl)prop-2-en-1-one] is “+ (+indicates binding activity from 5% to 25%)”.
The entry for `C=CC(=O)N1CCN(c2ncnc3cc(-c4ccc(F)cc4F)c(Cl)cc23)CC1C#N` (stereo not shown) [Compound I-145, 1-acryloyl-4-(6-chloro-7-(2,4-difluorophenyl)quinazolin-4-yl)piperazine-2-carbonitrile] is “++++ (++++indicates binding activity greater than 75%)”; for `C=CC(=O)N1CCN(c2ncnc3cc(-c4ccccc4O)c(Cl)cc23)CC1C#N` (stereo not shown) [Compound I-146, 1-acryloyl-4-(6-chloro-7-(2-hydroxyphenyl)quinazolin-4-yl)piperazine-2-carbonitrile] it is “++++ (++++indicates binding activity greater than 75%)”.
